Laboratory results reported in PubChem BioAssay AID2060882 (Molecular Pharmacology Branch, DTP, NCI, 2025).

System: 898857-211-R-J1-PDC complex spheroids, growth % test/control
Assay: Anticancer human tumor 898857-211-R-J1-PDC patient-derived melanoma cell line growth inhibition [RAS]
Details: for IC50: curve of first compound; for viability, T/C: stronger effect = lower value
Method in brief: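 Agents were tested in combination matrices in half-log decrements from a top concentration at or near clinical Cmax (10 microM if undetermined). Targets were multi-cell spheroids of tumour lines plus HUVEC and MSC stromal cells.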

[1] = second compound 0.000949 µM, first compound 0.0316 µM
[2] = second compound 0.000949 µM, first compound 0.1 µM
[3] = second compound 0.000949 µM, first compound 0.316 µM
[4] = second compound 0.000949 µM, first compound 1 µM
[5] = second compound 0.000949 µM, first compound 3.16 µM
[6] = second compound 0.000949 µM, first compound 10 µM
[7] = second compound 0.003 µM, first compound 0.0316 µM
[8] = second compound 0.003 µM, first compound 0.1 µM
[9] = second compound 0.003 µM, first compound 0.316 µM
[10] = second compound 0.003 µM, first compound 1 µM
[11] = second compound 0.003 µM, first compound 3.16 µM
[12] = second compound 0.003 µM, first compound 10 µM
[13] = second compound 0.00949 µM, first compound 0.0316 µM
[14] = second compound 0.00949 µM, first compound 0.1 µM
[15] = second compound 0.00949 µM, first compound 0.316 µM
[16] = second compound 0.00949 µM, first compound 1 µM
[17] = second compound 0.00949 µM, first compound 3.16 µM
[18] = second compound 0.00949 µM, first compound 10 µM
[19] = second compound 0.03 µM, first compound 0.0316 µM
[20] = second compound 0.03 µM, first compound 0.1 µM
[21] = second compound 0.03 µM, first compound 0.316 µM
[22] = second compound 0.03 µM, first compound 1 µM
[23] = second compound 0.03 µM, first compound 3.16 µM
[24] = second compound 0.03 µM, first compound 10 µM
[25] = second compound 0.0949 µM, first compound 0.0316 µM
[26] = second compound 0.0949 µM, first compound 0.1 µM
[27] = second compound 0.0949 µM, first compound 0.316 µM
[28] = second compound 0.0949 µM, first compound 1 µM
[29] = second compound 0.0949 µM, first compound 3.16 µM
[30] = second compound 0.0949 µM, first compound 10 µM
[31] = second compound 0.3 µM, first compound 0.0316 µM
[32] = second compound 0.3 µM, first compound 0.1 µM
[33] = second compound 0.3 µM, first compound 0.316 µM
[34] = second compound 0.3 µM, first compound 1 µM
[35] = second compound 0.3 µM, first compound 3.16 µM
[36] = second compound 0.3 µM, first compound 10 µM
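Further: spheroids exposed to compound for seven days before readout.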
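Wherever viability, T/C is given: 100% = DMSO vehicle control wells.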

With `CC(=O)OC12COC1CC(O)C1(C)C(=O)C(O)C3=C(C)C(OC(=O)C(O)C(NC(=O)OC(C)(C)C)c4ccccc4)CC(O)(C(OC(=O)c4ccccc4)C21)C3(C)C` (centres undefined) + CCn1c(-c2cccnc2C(C)OC)c2c3cc(ccc31)N1CCOC(CC(NC(=O)C(C(C)C)N(C)C(=O)C3(F)CCN(C(=O)C#CC(C)(C)N(C)C)CC3)C(=O)N3CCCC(N3)C(=O)OCC(C)(C)C2)C1 the IC50 (second compound 0.000949 µM) was < 31.6 nM, the IC50 (second compound 0.003 µM) was < 31.6 nM and the IC50 (second compound 0.00949 µM) was < 31.6 nM. For the same molecule, the IC50 (second compound 0.03 µM) was < 31.6 nM, the IC50 (second compound 0.0949 µM) was < 31.6 nM and the IC50 (second compound 0.3 µM) was < 31.6 nM. For the same molecule, the viability, T/C [1] was 10.8%, the viability, T/C [2] was 9.24% and the viability, T/C [3] was 8.35%. The viability, T/C [4] was 12.8%, the viability, T/C [5] was 18.6% and the viability, T/C [6] was 20.4%. For the same molecule, the viability, T/C [7] was 10.1%, the viability, T/C [8] was 11.5% and the viability, T/C [9] was 11.4%. The viability, T/C [10] was 12.4%, the viability, T/C [11] was 14% and the viability, T/C [12] was 20.9%. The viability, T/C [13] was 7.95%, the viability, T/C [14] was 8.82% and the viability, T/C [15] was 13.5%. For the same molecule, the viability, T/C [16] was 11.8%, the viability, T/C [17] was 12.9% and the viability, T/C [18] was 20.2%. The viability, T/C [19] was 8.31%, the viability, T/C [20] was 10.6% and the viability, T/C [21] was 9.59%. It also gave a viability, T/C [22] of 13.5%, a viability, T/C [23] of 16.6% and a viability, T/C [24] of 15.3%. The viability, T/C [25] was 8.5%, the viability, T/C [26] was 10.2% and the viability, T/C [27] was 10.7%. It also gave a viability, T/C [28] of 11.4%, a viability, T/C [29] of 15.7% and a viability, T/C [30] of 14.4%. The viability, T/C [31] was 8.04%, the viability, T/C [32] was 7.55% and the viability, T/C [33] was 8.89%. For the same molecule, the viability, T/C [34] was 9.35%, the viability, T/C [35] was 11.3% and the viability, T/C [36] was 7.88%.
In the case of `CCC(CC)c1cc(NC2CCC(N)C2)n2nccc2n1` (centres undefined) + CCn1c(-c2cccnc2C(C)OC)c2c3cc(ccc31)N1CCOC(CC(NC(=O)C(C(C)C)N(C)C(=O)C3(F)CCN(C(=O)C#CC(C)(C)N(C)C)CC3)C(=O)N3CCCC(N3)C(=O)OCC(C)(C)C2)C1, the IC50 (second compound 0.000949 µM) is reported as 1120 nM, the IC50 (second compound 0.003 µM) is reported as 1090 nM and the IC50 (second compound 0.00949 µM) is reported as 968 nM. It also gave an IC50 (second compound 0.03 µM) of 1040 nM, an IC50 (second compound 0.0949 µM) of 748 nM and an IC50 (second compound 0.3 µM) of 415 nM. For the same molecule, the viability, T/C [1] was 124%, the viability, T/C [2] was 105% and the viability, T/C [3] was 101%. The viability, T/C [4] was 57.4%, the viability, T/C [5] was 1.07% and the viability, T/C [6] was 0.23%. For the same molecule, the viability, T/C [7] was 109%, the viability, T/C [8] was 106% and the viability, T/C [9] was 103%. It also gave a viability, T/C [10] of 54%, a viability, T/C [11] of 0.85% and a viability, T/C [12] of 0.65%. It also gave a viability, T/C [13] of 103%, a viability, T/C [14] of 100% and a viability, T/C [15] of 101%. For the same molecule, the viability, T/C [16] was 48.5%, the viability, T/C [17] was 1.54% and the viability, T/C [18] was 0.27%. It also gave a viability, T/C [19] of 108%, a viability, T/C [20] of 109% and a viability, T/C [21] of 102%. For the same molecule, the viability, T/C [22] was 51.9%, the viability, T/C [23] was 0.7% and the viability, T/C [24] was 0.63%. The viability, T/C [25] was 94.9%, the viability, T/C [26] was 105% and the viability, T/C [27] was 80.4%. It also gave a viability, T/C [28] of 40.9%, a viability, T/C [29] of 0.82% and a viability, T/C [30] of 0.45%. The viability, T/C [31] was 83.5%, the viability, T/C [32] was 72.2% and the viability, T/C [33] was 59.9%. It also gave a viability, T/C [34] of 22.7%, a viability, T/C [35] of 1.27% and a viability, T/C [36] of 0.27%.
